Measured values taken from US12378211B2, “Carbonic anhydrase inhibitors and antibiotics against multidrug resistant bacteria” (Purdue Research Foundation, priority 2018, dated 2025).
In brackets after ≈: the same amount, converted by molar mass. Where two headings read alike, the source gives them in different places.

Columns and labels:
[1] = system: Enterococcus fecalis Strain SF 28073-NR31972; test: MIC, broth microdilution in TSB; format: cell-based; conditions: Enterococcus, TSB
Protocol: (§1) The minimum inhibitory concentrations (MICs) of the compounds and control drugs were determined using the broth microdilution method, according to guidelines outlined by the Clinical and Laboratory Standards Institute (CLSI). Enterococci strains were grown aerobically overnight on tryptone soya agar plates at 37° C., afterwards a bacterial solution equivalent to 0.5 McFarland standard was prepared and diluted in tryptone soy broth (TSB) to achieve a bacterial concentration of about 5×10^5 CFU/mL and seeded in 96-well well plates. Compounds and control drugs were added in the first row of the 96-well plates and serially diluted along the plates. Plates were then incubated aerobically at 37° C. for 18-20 hours. MICs reported in Table 1 are the minimum concentration of the compounds/control drugs that could inhibit completely the visual growth of the bacteria.

[2] = system: Enterococcus faecium Patient #3-1 NR-31912; test: MIC, broth microdilution in TSB; format: cell-based; conditions: Enterococcus faecium, TSB
Protocol: as §1

[3] = system: Enterococcus faecium Patient #2-1-NR-31909; test: MIC, broth microdilution in TSB; format: cell-based; conditions: Enterococcus faecium, TSB
Protocol: as §1

[4] = system: Enterococcus faecium E417-HM-965; test: MIC, broth microdilution in TSB; format: cell-based; conditions: Enterococcus faecium, E417HM965, TSB
Protocol: as §1

[5] = system: Staphylococcus epidermidis NRS 101; test: MIC against Staphylococci, broth microdilution; format: cell-based; conditions: Staphylococcus epidermidis, NRS101; TSB; read-out: MIC
Protocol: as §1, with “Institute (CLSI) 1. Staphylococci” for “Institute (CLSI). Enterococci”, “Table 2” for “Table 1”

[6] = system: Enterococcus fecalis Strain SF 24397 NR31970; test: MIC, broth microdilution in TSB; format: cell-based; conditions: Enterococcus, TSB
Protocol: as §1

[7] = system: Enterococcus faecalis—S613 HM-334; test: MIC, broth microdilution in TSB; format: cell-based; conditions: Enterococcus, TSB
Protocol: as §1

[8] = system: Enterococcus fecalis Strain MMH594-NR31975; test: MIC, broth microdilution in TSB; format: cell-based; conditions: Enterococcus, TSB
Protocol: as §1

[9] = system: Enterococcus fecalis Strain SF24413 NR31971; test: MIC, broth microdilution in TSB; format: cell-based; conditions: Enterococcus, TSB
Protocol: as §1

[10] = system: Bifidobacterium longum subsp. Longum—44B HM 845; test: MIC against human normal gut microbiota; format: cell-based; conditions: Bifidobacterium longum; BHIS broth, anaerobic, 48 hours; read-out: MIC
Protocol: (§2) Three different bacterial strains were used in this experiment; Bifidobacterium (anaerobic Gram positive bacteria), Bacteroides (anaerobic Gram negative bacteria) and Lactobacillus (microaerophilic Gram positive bacteria). Bifidobacterium and Bacteroides were first grown for 48 hours at 37° C., anaerobically using brain heart infusion supplemented (BHIS) agar (Brain heart infusion agar supplemented with hemin, vitamin K and L-cysteine). Lactobacillus was cultivated on MRS agar and incubated in presence of 5% CO2 for 48 hours at 37° C. Each bacterium was suspended in phosphate buffered saline (PBS) to produce a suspension with optical density that matches 0.5 McFarland standard and diluted in brain heart infusion supplemented broth (for Bifidobacterium and Bacteroides) or in MRS broth (for Lactobacillus) to achieve bacterial concentration of approximately 5×10^5 CFU/ml. Bacteria were then seeded in 96-well plates containing serial dilutions of the compounds and incubated as mentioned previously for 48 hours.

[11] = system: Bifidobacterium breve—JCP7499 HIM 1120; test: MIC against human normal gut microbiota; format: cell-based; conditions: Bifidobacterium; BHIS broth, anaerobic, 48 hours; read-out: MIC
Protocol: as §2

[12] = system: Bacteroides fragilis—CL07T00C01 HIM-709; test: MIC against human normal gut microbiota; format: cell-based; conditions: Bacteroides; BHIS broth, anaerobic, 48 hours; read-out: MIC
Protocol: as §2

[13] = system: Lactobacillus gasseri EX336960VC03 HIM-400; test: MIC against human normal gut microbiota; format: cell-based; conditions: Lactobacillus gasseri; MRS broth, 5% CO2, 48 hours; read-out: MIC
Protocol: as §2

[14] = system: Lactobacillus casei ATCC 334; test: MIC against human normal gut microbiota; format: cell-based; conditions: Lacticaseibacillus casei, ATCC334; MRS broth, 5% CO2, 48 hours; read-out: MIC
Protocol: as §2

[15] = system: Bacteroides dorei—CL02T12C06 HM-719; test: MIC against human normal gut microbiota; format: cell-based; conditions: Bacteroides; BHIS broth, anaerobic, 48 hours; read-out: MIC
Protocol: as §2

[16] = system: MRSA NRS 384 (MRSA USA300); test: MIC against Staphylococci, broth microdilution; format: cell-based, Staphylococcus aureus; conditions: Staphylococcus aureus; TSB; read-out: MIC
Protocol: as §1, with “Institute (CLSI) 1. Staphylococci” for “Institute (CLSI). Enterococci”, “Table 2” for “Table 1”

Row | SMILES | MIC ([1]; Table 7, read-out: MIC in TSB) | MIC ([2]; Table 7, read-out: MIC in TSB) | MIC ([3]; Table 7, read-out: MIC in TSB) | MIC ([4]; Table 7, read-out: MIC in TSB) | MIC ([6]; Table 7, read-out: MIC in TSB) | MIC ([7]; Table 7, read-out: MIC in TSB) | MIC ([8]; Table 7, read-out: MIC in TSB) | MIC ([9]; Table 7, read-out: MIC in TSB) | also measured
1 | NS(=O)(=O)c1nnc(NCc2ccc(C(F)(F)F)cc2)s1 [CAI0008, 5-((4-(trifluoromethyl)benzyl)amino)-1,3,4-thiadiazole-2-sulfonamide] | > 64 µg/mL | > 64 µg/mL | > 64 µg/mL | > 64 µg/mL |  |  |  |  | 
2 | NS(=O)(=O)c1nnc(NCc2cccc(Br)c2)s1 [CAI0004, 5-((3-bromobenzyl)amino)-1,3,4-thiadiazole-2-sulfonamide] | 8 µg/mL (≈ 22.9 µM) | 8 µg/mL (≈ 22.9 µM) | 8 µg/mL (≈ 22.9 µM) | 16 µg/mL (≈ 45.8 µM) |  |  |  |  | 
3 | CCC(=O)Nc1nnc(S(N)(=O)=O)s1 [CAI0009, N-(5-Sulfamoyl-1,3,4-thiadiazol-2-yl) propionamide] | 4 µg/mL (≈ 16.9 µM) | 1 µg/mL (≈ 4.23 µM) | 1 µg/mL (≈ 4.23 µM) | 1 µg/mL (≈ 4.23 µM) | 4 µg/mL (≈ 16.9 µM) | 2 µg/mL (≈ 8.46 µM) | 2 µg/mL (≈ 8.46 µM) | 4 µg/mL (≈ 16.9 µM) | MIC [5]: > 64 µg/mL; MIC ([1]; Table 1, read-out: MIC): 4 µg/mL (≈ 16.9 µM); MIC ([6]; Table 1, read-out: MIC): 4 µg/mL (≈ 16.9 µM); MIC ([7]; Table 1, read-out: MIC): 2 µg/mL (≈ 8.46 µM); MIC ([8]; Table 1, read-out: MIC): 2 µg/mL (≈ 8.46 µM); MIC ([2]; Table 1, read-out: MIC): 1 µg/mL (≈ 4.23 µM); MIC ([3]; Table 1, read-out: MIC): 1 µg/mL (≈ 4.23 µM); MIC ([9]; Table 1, read-out: MIC): 4 µg/mL (≈ 16.9 µM); MIC ([4]; Table 1, read-out: MIC): 1 µg/mL (≈ 4.23 µM); MIC [10]: > 64 µg/mL; MIC [11]: > 64 µg/mL; MIC [12]: > 64 µg/mL; MIC [13]: > 64 µg/mL; MIC [14]: > 64 µg/mL; MIC [15]: > 64 µg/mL; MIC [16]: > 64 µg/mL
4 | NS(=O)(=O)c1nnc(NC(=O)C2CCCC2)s1 [CAI0023, N-(5-Sulfamoyl-1,3,4-thiadiazol-2-yl)cyclopentanecarboxamide] | 1 µg/mL (≈ 3.62 µM) | 0.25 µg/mL (≈ 0.905 µM) | 0.06 µg/mL (≈ 0.217 µM) | 0.25 µg/mL (≈ 0.905 µM) | 0.5 µg/mL (≈ 1.81 µM) | 0.5 µg/mL (≈ 1.81 µM) | 0.5 µg/mL (≈ 1.81 µM) | 0.5 µg/mL (≈ 1.81 µM) | 
5 | NS(=O)(=O)c1nnc(NCc2ccccc2C(F)(F)F)s1 [CAI0006, 5-((2-(trifluoromethyl)benzyl)amino)-1,3,4-thiadiazole-2-sulfonamide] | > 64 µg/mL |  | > 64 µg/mL | > 64 µg/mL |  |  |  |  | 
6 | NS(=O)(=O)c1nnc(NC(=O)CC2CCCC2)s1 [CAI0021, 2-Cyclopentyl-N-(5-sulfamoyl-1,3,4-thiadiazol-2-yl)acetamide] | 0.03 µg/mL (≈ 0.103 µM) | 0.03 µg/mL (≈ 0.103 µM) | 0.003 µg/mL (≈ 0.0103 µM) | 0.06 µg/mL (≈ 0.207 µM) | 0.03 µg/mL (≈ 0.103 µM) | 0.03 µg/mL (≈ 0.103 µM) | 0.03 µg/mL (≈ 0.103 µM) | 0.06 µg/mL (≈ 0.207 µM) | 
7 | NS(=O)(=O)c1nnc(NCc2ccccc2)s1 [CAI0005, 5-(benzylamino)-1,3,4-thiadiazole-2-sulfonamide] | > 64 µg/mL |  | > 64 µg/mL | > 64 µg/mL |  |  |  |  | 
8 | CC(C)CC(=O)Nc1nnc(S(N)(=O)=O)s1 [CAI0026, 3-Methyl-N-(5-sulfamoyl-1,3,4-thiadiazol-2-yl)butanamide] | 0.5 µg/mL (≈ 1.89 µM) | 0.125 µg/mL (≈ 0.473 µM) | 0.003 µg/mL (≈ 0.0113 µM) | 0.125 µg/mL (≈ 0.473 µM) | 0.25 µg/mL (≈ 0.946 µM) | 0.25 µg/mL (≈ 0.946 µM) | 0.25 µg/mL (≈ 0.946 µM) | 0.25 µg/mL (≈ 0.946 µM) | 
9 | NS(=O)(=O)c1nnc(NC(=O)C2CC2)s1 [CAI0020, N-(5-Sulfamoyl-1,3,4-thiadiazol-2-yl)cyclopropanecarboxamide] | 0.003 µg/mL (≈ 0.0121 µM) | 0.007 µg/mL (≈ 0.0282 µM) | 0.001 µg/mL (≈ 0.00403 µM) | 0.007 µg/mL (≈ 0.0282 µM) | 0.015 µg/mL (≈ 0.0604 µM) | 0.007 µg/mL (≈ 0.0282 µM) | 0.007 µg/mL (≈ 0.0282 µM) | 0.015 µg/mL (≈ 0.0604 µM) | 
10 | NS(=O)(=O)c1nnc(NCc2ccccc2Cl)s1 [CAI0002, 5-((2-chlorobenzyl)amino)-1,3,4-thiadiazole-2-sulfonamide] | > 64 µg/mL | > 64 µg/mL | > 64 µg/mL | > 64 µg/mL |  |  |  |  | 
